The values below come from PMC9866367 (Journal of medicinal chemistry, 2022).

Data set [1] has as its target T1, purified human sAC protein (Homo sapiens, UniProt Q96PN6).
T1 sequence (Q96PN6 1-469): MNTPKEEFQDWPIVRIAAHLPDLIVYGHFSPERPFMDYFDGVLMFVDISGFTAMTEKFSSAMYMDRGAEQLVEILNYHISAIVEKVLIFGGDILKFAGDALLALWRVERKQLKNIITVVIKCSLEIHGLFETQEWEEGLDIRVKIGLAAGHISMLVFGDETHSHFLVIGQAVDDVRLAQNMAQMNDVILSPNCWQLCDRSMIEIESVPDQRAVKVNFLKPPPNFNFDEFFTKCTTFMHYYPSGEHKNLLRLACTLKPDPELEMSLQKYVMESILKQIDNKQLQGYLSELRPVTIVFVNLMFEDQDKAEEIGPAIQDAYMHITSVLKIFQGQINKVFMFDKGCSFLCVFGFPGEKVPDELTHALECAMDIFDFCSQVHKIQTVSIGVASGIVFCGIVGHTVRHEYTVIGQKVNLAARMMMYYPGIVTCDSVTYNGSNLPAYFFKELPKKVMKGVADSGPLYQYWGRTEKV
Kind of data set: In vitro cyclase activity assay. Format: biochemical.

In data set [2] the target is T2, recombinant purified His-tagged sACt protein (Homo sapiens, UniProt Q96PN6).
T2 sequence (Q96PN6 1-469 limits assumed): T1 sequence (Q96PN6 1-469)
Kind of data set: Binding kinetics via surface plasmon resonance. The following applies: read-out: SPR Residence Time. (Surface plasmon resonance follows binding to a sensor surface in real time, without labels.)

In data set [3] the test system is panel of 322 kinases. Put plainly: Kinase panel. Format: biochemical. The following applies: Table S2.
Data set [4] in a line: Cytotoxicity. Format: cell-based.
Data set [5] can be described thus: GSH. It is filed as in vitro ADME. To be noted: 5 μM compound, 5 mM GSH, up to 2 h.
The test system of data set [6] is 46 other relevant drug targets such as GPCRs, ion channels, and nuclear receptors. Put plainly: Eurofins safety panel. The following applies: Table S3.
The conditions of data set [7]: 50 mg/kg IP, male mice, 1 h post-dosing; cited from earlier work.
The nature of data set [8]: In vivo pharmacokinetic analysis in mice. Also on record: species or system male CD-1 mice.
[9] abbreviates: male, CD-1, mouse, plasma, iv, 2 mg/kg.

`CN(C)C(=O)c1ccccc1Cc1cn(C)nc1-c1cc(Cl)nc(N)n1` [Compound 14]: the “biochemical activity in words” value in data set [1] is “almost inactive”.
For `Nc1nc(Cl)cc(-c2nn(C(F)F)cc2Cc2ccccc2OCC(=O)N2CCOCC2)n1` [Compound 24], the residence time in data set [2] was 8.07 min.
`Nc1nc(Cl)cc(-c2nn(C(F)F)cc2Cc2ccccc2OCCN2CCOC[C@H]2CO)n1` [Compound 33, [(3R)-4-[2-[2-[[3-(2-Amino-6-chloro-pyrimidin-4-yl)-1-(difluoromethyl)pyrazol-4-yl]methyl]phenoxy]ethyl]morpholin-3-yl]methanol]: the “activity against a panel of 322 kinases” value in data set [3] is on record as “did not show appreciable activity”. The same compound registered a cytotoxicity in data set [4] of over 20 µM. In addition, the cytotoxicity in words result in data set [4] (at 20 μM) is “no cytotoxicity”. Further, the figures for the glutathione reactivity result in data set [5] (listed as TDI-11861) and in data set [5] (listed as TDI-11861 (33)) were “no evidence of adduct formation” and “low propensity at 5 μM”, respectively. Further, the “activity against 46 other drug targets in Eurofins safety panel” value in data set [6] is given as “did not show appreciable activity”. Besides, in data set [7], the systemic level is 7.04 µM. For the same compound, the “unbound plasma exposure over cellular IC50 ([…])” value in data set [8] (50 mg/kg PO, CD-1 mice, out to 4 h) is ~ 10 fold. Besides, the AUC(0-t) in data set [8] (setting [9]) amounted to 780 ± 110 µM·h; in data set [8] (male, CD-1, mouse, plasma, po, 10 mg/kg) it was 410 ± 57 µM·h; in data set [8] (male, CD-1, mouse, plasma, po, 50 mg/kg) it was 5460 ± 1500 µM·h. Besides, the clearance in data set [8] (setting [9]) came out at 94 ± 12 mL/min/kg.

As a reminder, the residence time is the mean lifetime of the complex, commonly the reciprocal of the off-rate. One may read the AUC(0-t) as the area under the concentration-time curve up to a stated or last time point. The low end stands for low exposure, the high end for high exposure. The term clearance denotes the volume of plasma or blood freed of the substance per unit of time.
